Measurements: ChEMBL document CHEMBL1828564, “Design, synthesis and biological evaluation of novel 1,2,3,4-tetrahydroisoquinoline-3-carboxylic acid derivatives as aminopeptidase N/CD13 inhibitors” (Bioorg Med Chem, 2011)
Where a SMILES comes first, the peptide text is derived from it. [ ]: non-standard residue; d: D form. The star is where a group is joined. Hyp = O=C(O)[C@@H]1C[C@@H](O)CN1; Tic = O=C(O)[C@@H]1Cc2ccccc2CN1; Phg = N[C@H](C(=O)O)c1ccccc1; NHOH = ON*

Columns and labels:
Aminopeptidase N [1] = biological target: T1, Aminopeptidase N (Sus scrofa, UniProt P15145); assay: Inhibition of pig kidney microsome aminopeptidase N using L-Leu-p-nitroanilide substrate
T1 sequence (P15145 whole entry): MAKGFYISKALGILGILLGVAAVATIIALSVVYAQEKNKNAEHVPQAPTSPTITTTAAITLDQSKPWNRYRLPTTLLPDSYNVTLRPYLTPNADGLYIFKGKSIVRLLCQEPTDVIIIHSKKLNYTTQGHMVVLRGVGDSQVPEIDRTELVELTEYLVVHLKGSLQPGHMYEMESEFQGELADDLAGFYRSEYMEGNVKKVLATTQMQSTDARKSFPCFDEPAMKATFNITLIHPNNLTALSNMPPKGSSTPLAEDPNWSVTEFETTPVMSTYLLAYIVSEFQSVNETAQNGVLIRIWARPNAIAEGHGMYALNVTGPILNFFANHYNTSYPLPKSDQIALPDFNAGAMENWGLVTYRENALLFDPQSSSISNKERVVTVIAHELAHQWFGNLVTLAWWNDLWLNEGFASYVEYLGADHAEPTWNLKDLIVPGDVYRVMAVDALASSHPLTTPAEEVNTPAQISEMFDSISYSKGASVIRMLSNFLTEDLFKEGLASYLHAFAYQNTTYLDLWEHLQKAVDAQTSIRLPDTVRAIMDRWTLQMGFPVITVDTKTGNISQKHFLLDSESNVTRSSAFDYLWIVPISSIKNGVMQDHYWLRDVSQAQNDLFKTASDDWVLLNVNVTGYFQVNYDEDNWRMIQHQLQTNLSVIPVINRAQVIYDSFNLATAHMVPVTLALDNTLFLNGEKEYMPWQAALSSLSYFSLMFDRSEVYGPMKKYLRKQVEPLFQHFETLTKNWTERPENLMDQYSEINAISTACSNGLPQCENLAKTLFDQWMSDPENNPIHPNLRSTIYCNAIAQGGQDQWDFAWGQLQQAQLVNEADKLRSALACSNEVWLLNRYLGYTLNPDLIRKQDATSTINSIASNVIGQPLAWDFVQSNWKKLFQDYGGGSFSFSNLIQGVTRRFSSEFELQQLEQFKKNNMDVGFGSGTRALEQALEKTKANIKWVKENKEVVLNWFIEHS

[2] = biological target: 72 kDa type IV collagenase (Homo sapiens, UniProt P08253); assay: Inhibition of MMP2 after 30 mins
Aminopeptidase N [3] = biological target: Aminopeptidase N (Homo sapiens, UniProt P15144); assay: Inhibition of aminopeptidase N in human ES2 cells assessed as L-Leu-p-nitroanilide hydrolysis; type: cell-based
MDA-MB-231 = assay: Antiproliferative activity against human MDA-MB-231 cells after 48 hrs by MTT assay; type: functional, cell-based; conditions: MDA-MB-231, 48 h
cells = conditions: Homo sapiens, ES-2, 48 h
Description: Antiproliferative activity against human ES2 cells after 48 hrs by MTT assay

72 kDa type IV collagenase, sequence (P08253 whole entry): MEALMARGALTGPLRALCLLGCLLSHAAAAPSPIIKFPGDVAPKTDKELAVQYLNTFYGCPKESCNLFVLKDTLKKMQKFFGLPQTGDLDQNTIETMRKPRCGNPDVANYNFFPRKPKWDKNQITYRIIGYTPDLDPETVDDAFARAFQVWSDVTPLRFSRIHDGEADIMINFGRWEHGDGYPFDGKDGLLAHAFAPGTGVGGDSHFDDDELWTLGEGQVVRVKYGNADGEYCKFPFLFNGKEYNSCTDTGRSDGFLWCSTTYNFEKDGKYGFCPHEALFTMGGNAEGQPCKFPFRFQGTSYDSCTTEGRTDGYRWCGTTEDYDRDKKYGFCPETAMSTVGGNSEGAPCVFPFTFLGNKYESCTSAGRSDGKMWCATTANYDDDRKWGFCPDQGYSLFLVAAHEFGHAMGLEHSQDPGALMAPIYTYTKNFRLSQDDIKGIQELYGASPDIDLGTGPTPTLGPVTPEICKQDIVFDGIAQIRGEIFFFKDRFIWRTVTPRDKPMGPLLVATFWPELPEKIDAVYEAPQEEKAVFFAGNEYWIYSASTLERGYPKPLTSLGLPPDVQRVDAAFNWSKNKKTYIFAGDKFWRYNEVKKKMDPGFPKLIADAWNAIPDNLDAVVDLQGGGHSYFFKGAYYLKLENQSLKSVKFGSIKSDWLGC
Aminopeptidase N (Homo sapiens, UniProt P15144), sequence (P15144 whole entry): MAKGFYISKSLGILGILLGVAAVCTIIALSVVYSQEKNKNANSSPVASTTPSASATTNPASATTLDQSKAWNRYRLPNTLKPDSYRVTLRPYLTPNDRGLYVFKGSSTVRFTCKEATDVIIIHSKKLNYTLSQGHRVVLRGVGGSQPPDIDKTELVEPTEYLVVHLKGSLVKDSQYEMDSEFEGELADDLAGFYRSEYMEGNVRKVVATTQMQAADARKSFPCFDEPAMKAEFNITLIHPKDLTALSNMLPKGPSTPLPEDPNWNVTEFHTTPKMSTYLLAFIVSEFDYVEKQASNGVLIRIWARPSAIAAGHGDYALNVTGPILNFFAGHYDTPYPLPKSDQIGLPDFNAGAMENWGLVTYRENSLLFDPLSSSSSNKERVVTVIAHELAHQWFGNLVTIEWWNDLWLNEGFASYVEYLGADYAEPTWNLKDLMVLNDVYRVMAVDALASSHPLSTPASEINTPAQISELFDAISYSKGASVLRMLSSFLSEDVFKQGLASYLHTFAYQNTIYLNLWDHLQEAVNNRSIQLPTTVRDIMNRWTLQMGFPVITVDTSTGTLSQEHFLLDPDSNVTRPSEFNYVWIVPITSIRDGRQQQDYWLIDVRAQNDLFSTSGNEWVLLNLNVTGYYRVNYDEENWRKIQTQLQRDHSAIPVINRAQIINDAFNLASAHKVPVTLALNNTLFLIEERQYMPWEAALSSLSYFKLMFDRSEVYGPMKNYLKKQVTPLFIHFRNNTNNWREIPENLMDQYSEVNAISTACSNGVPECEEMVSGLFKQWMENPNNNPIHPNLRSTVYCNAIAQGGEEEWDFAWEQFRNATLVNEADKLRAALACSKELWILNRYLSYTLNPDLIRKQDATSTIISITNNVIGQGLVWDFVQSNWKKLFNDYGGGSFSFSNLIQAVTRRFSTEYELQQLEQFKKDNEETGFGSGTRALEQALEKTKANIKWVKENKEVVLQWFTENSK

`O=C(CCNC(=O)[C@@H]1Cc2ccccc2CN1)NO` showed an IC50 (Aminopeptidase N [1]; read-out: IC50) of 37.1 µM and an IC50 ([2]; read-out: IC50) of 517 µM.
For `CC(C)C[C@H](NC(=O)[C@@H]1Cc2ccccc2CN1)C(=O)N[C@@H](Cc1ccccc1)C(=O)NO` (H-[Tic]-Leu-Phe-{NHOH}), the IC50 (Aminopeptidase N [1]; read-out: IC50) was 465 µM and the IC50 ([2]; read-out: IC50) was 657 µM.
`O=C(N[C@@H](Cc1ccc(O)cc1)C(=O)NO)[C@@H]1Cc2ccccc2CN1` (H-[Tic]-Tyr-{NHOH}) showed an IC50 (Aminopeptidase N [1]; read-out: IC50) of 9.39 µM and an IC50 ([2]; read-out: IC50) of 540 µM.
In the case of `Cl.O=C(CN1C(=O)CC[C@H](NC(=O)[C@@H]2Cc3ccccc3CN2)C1=O)NO`, the IC50 (Aminopeptidase N [1]; read-out: IC50) is reported as 20.4 µM and the IC50 [2] is reported as “Not Active”.
With `O=C(N[C@@H](Cc1ccccc1)C(=O)NO)[C@@H]1Cc2ccccc2CN1` (H-[Tic]-Phe-{NHOH}) the IC50 (Aminopeptidase N [1]; read-out: IC50) was 12.8 µM and the IC50 ([2]; read-out: IC50) was 940 µM.
For `C[C@H](NC(=O)[C@@H]1Cc2ccccc2CN1)C(=O)NO` (H-[Tic]-Ala-{NHOH}), the IC50 (Aminopeptidase N [1]; read-out: IC50) was 83.8 µM and the IC50 ([2]; read-out: IC50) was 463 µM.
With `Cl.O=C(N[C@@H](Cc1cc2ccccc2[nH]1)C(=O)NO)[C@@H]1Cc2ccccc2CN1` the IC50 (Aminopeptidase N [1]; read-out: IC50) was 43.4 µM and the IC50 [2] was “Not Active”.
Compound `CC(C)[C@H](NC(=O)[C@@H]1Cc2ccccc2CN1)C(=O)NO` (H-[Tic]-Val-{NHOH}) has an IC50 (Aminopeptidase N [1]; read-out: IC50) of 36.6 µM and an IC50 ([2]; read-out: IC50) of 307 µM.
`O=C(CCCNC(=O)[C@@H]1Cc2ccccc2CN1)NO` gave an IC50 (Aminopeptidase N [1]; read-out: IC50) of 44.5 µM and an IC50 ([2]; read-out: IC50) of 252 µM.
For `CC(C)C[C@H](NC(=O)[C@H](Cc1ccccc1)NC(=O)[C@@H]1Cc2ccccc2CN1)C(=O)NO.Cl` (H-[Tic]-Phe-Leu-{NHOH}), the IC50 (Aminopeptidase N [1]; read-out: IC50) was 555 µM and the IC50 [2] was “Not Active”.
For `Cl.O=C(NO)[C@@H]1C[C@@H](O)CN1C(=O)[C@@H]1Cc2ccccc2CN1` (H-[Tic]-[Hyp]-{NHOH}), the IC50 (Aminopeptidase N [1]) was “Not Active” and the IC50 ([2]; read-out: IC50) was 276 µM.
`C[C@@H](O)[C@H](NC(=O)[C@@H]1Cc2ccccc2CN1)C(=O)NO` (H-[Tic]-Thr-{NHOH}) gave an IC50 (Aminopeptidase N [1]; read-out: IC50) of 46.6 µM and an IC50 ([2]; read-out: IC50) of 201 µM.
With `O=C(NO)[C@@H]1CCCN1C(=O)[C@@H]1Cc2ccccc2CN1` (H-[Tic]-Pro-{NHOH}) the IC50 (Aminopeptidase N [1]; read-out: IC50) was 104 µM and the IC50 ([2]; read-out: IC50) was 157 µM.
In the case of `Cl.O=C(N[C@@H](Cc1ccccc1)C(=O)N[C@@H](Cc1ccccc1)C(=O)NO)[C@@H]1Cc2ccccc2CN1` (H-[Tic]-Phe-Phe-{NHOH}), the IC50 (Aminopeptidase N [1]; read-out: IC50) is reported as 435 µM and the IC50 [2] is reported as “Not Active”.
In the case of `CC(C)C[C@H](NC(=O)[C@H](CC(C)C)NC(=O)[C@@H]1Cc2ccccc2CN1)C(=O)NO.Cl` (H-[Tic]-Leu-Leu-{NHOH}), the IC50 (Aminopeptidase N [1]; read-out: IC50) is reported as 481 µM and the IC50 [2] is reported as “Not Active”.
`CSCC[C@H](NC(=O)[C@@H]1Cc2ccccc2CN1)C(=O)NO` (H-[Tic]-Met-{NHOH}) showed an IC50 (Aminopeptidase N [1]; read-out: IC50) of 8.77 µM and an IC50 ([2]; read-out: IC50) of 166 µM.
`O=C(CNC(=O)[C@@H]1Cc2ccccc2CN1)NO` (H-[Tic]-Gly-{NHOH}) showed an IC50 (Aminopeptidase N [1]; read-out: IC50) of 21.7 µM and an IC50 ([2]; read-out: IC50) of 249 µM.
In the case of `O=C(N[C@H](C(=O)NO)c1ccccc1)[C@@H]1Cc2ccccc2CN1` (H-[Tic]-[Phg]-{NHOH}), the IC50 (Aminopeptidase N [1]; read-out: IC50) is reported as 6.28 µM, the IC50 ([2]; read-out: IC50) is reported as 393 µM and the IC50 (Aminopeptidase N [3]) is reported as 32.7 µM. The inhibition (Aminopeptidase N [3]) was “Dose-dependent effect”, the IC50 (MDA-MB-231) was 591 µM and the IC50 (cells) was 174 µM.
In the case of `CC(C)C[C@H](NC(=O)[C@@H](O)[C@H](N)Cc1ccccc1)C(=O)O` [UBENIMEX], the IC50 (MDA-MB-231) is reported as 753 µM and the IC50 (cells) is reported as 142 µM.
For `CC(C)C[C@H](NC(=O)[C@@H]1Cc2ccccc2CN1)C(=O)NO` (H-[Tic]-Leu-{NHOH}), the IC50 (Aminopeptidase N [1]; read-out: IC50) was 27.5 µM and the IC50 ([2]; read-out: IC50) was 836 µM.
`O=C(N[C@@H](CO)C(=O)NO)[C@@H]1Cc2ccccc2CN1` (H-[Tic]-Ser-{NHOH}) gave an IC50 (Aminopeptidase N [1]; read-out: IC50) of 40.2 µM and an IC50 ([2]; read-out: IC50) of 268 µM.
In the case of `CC[C@H](C)[C@H](NC(=O)[C@@H]1Cc2ccccc2CN1)C(=O)NO.Cl` (H-[Tic]-Ile-{NHOH}), the IC50 (Aminopeptidase N [1]) is reported as “Not Active” and the IC50 ([2]; read-out: IC50) is reported as 672 µM.
